Broadly, the Ki is the dissociation constant of the complex between target and ligand, obtained from inhibition or displacement. The IC50 is the concentration needed to halve the response being measured.

“Also recorded” adds a separate entry of the source. Like-named read-outs stand apart in the source and are kept apart here.

The source of these data is PMC9409361, “EsigGOBP1: The Key Protein Binding Alpha-Phellandrene in Endoclita signifer Larvae” (International Journal of Molecular Sciences, 2022).

Experiment [1] has as its system recombinant EsigGOBP1. Briefly: Fluorescence competition binding assay (FCBA) with 1-NPN probe. Also on record: species or system Endoclita signifer. The following applies: for binding affinities for EsigGOBP1 (in words): FCBA, ordered by Kd values; for Ki: calculated from IC50: Ki = [IC50]/(1 + [1-NPN]/K1-NPN); for IC50: competitive binding, 1-NPN and EsigGOBP1 both at 2 μM, ligands 2–24 μM, pH 7.4. As for the experimental part: N-phenyl-1-naphthylamine (1-NPN) was selected for use as a selectively fluorescent probe to measure the affinity of ligand binding to recombinant EsigGOBP1 [20, 42]. Twelve volatiles (Table 1) from eucalyptus trunks and humus soil under eucalyptus plantation were collected, identified and screened using the dynamic headspace adsorption method, gas chromatograph coupled to mass selective detector, gas chromatograph electroantennal detection and Y-tube olfactometer bioassay (Table S1). […] A 2 μM solution of EsigGOBP1 was prepared in 20 mM Tris-HCl buffer (pH 7.4), and the ligands were dissolved in chromatographically pure methanol as 1 mM stock solutions. […] Intensity values corresponding to maximum fluorescence emission were plotted against free ligand concentrations to determine dissociation constants. K1-NPN values were calculated by Scatchard plots to linearize curves.

The test system of experiment [2] is EsigGOBP1 expression in the head of E. signifer larvae. Briefly: qRT-PCR expression of EsigGOBP1 in larval heads after exposure to volatiles. The experiment is classed as in vivo, Endoclita signifer. As for the experimental part:
The 3rd and 5th instar larvae of E. signifer were exposed to 12 GC-EAD active volatile compounds (Table S1). The exposure method followed that of Llopis-Gimenez and Hu. Thirty-three 5th instar larvae were exposed to ten compounds and only methanol (control) with three biological replicates (50 μL of each odorant diluted to 10 g/L in methanol in a 50 mL jar for 24 h). Thereafter, the total RNA from the heads of these larvae were extracted and its concentration and purity measured. The residual genomic DNA in the total RNA was removed using DNase I (Thermo Scientific, Waltham, MA, USA) then purified RNA used to synthesize cDNA following the method of Zhang. The treatments carried out on the 5th instar larvae, were the same as applied to 3rd instar larvae (n = 27) (eight compounds, one control; three biological replicates). The sequence of the gene-specific primers of EsigGOBP1 were as follow: forward primer: 5′-[…]-3′; reverse primer: 5′-[…] TCTCGT-3′ [37]. Roche LIGHT CYCLE 480II (USA) and Genious 2X SYBR Green Fast qPCR Mix (No ROX) (No. RK21205; ABclonal, Wuhan, China) were used for a PCR reaction under a three-step amplification program. Each 20 µL real-time fluorescence quantification PCR (qRT-PCR) reaction mixture contained 10 µL of Genious 2X SYBR Green Fast qPCR Mix, […] ([…]), 2 µL of sample cDNA (2.5 ng of RNA), and […] of dH2O (sterile distilled water), with the following cycling parameters: 95 °C for 180 s, followed by 40 cycles of 95 °C for 5 s, 60 °C for 30 s, and 65 °C to 95 °C in increments of 0.5 °C for 5 s to generate melting curves. The sequences of the primers of the reference gene, GADPH were forward primer 5′-[…]-3′; reverse primer 5′-[…]-3′ [60]. The measurement of the expression of EsigGOBP1 in head, thorax and abdomen of 3rd instar larvae followed the protocol of Zhang. Each qRT-PCR reaction for each volatile exposure and tissues, was performed in three biological replicates and three technical replicates in Roche LIGHT CYCLE 480II. The expression of EsigGOBP1, from exposure to o-cymene and camphene served as the control for the 3rd and 5th instar larvae, respectively, and GADPH was used to measure the relative gene expressions by the 2^−ΔΔCT method. The 2^−ΔCT method was used to measure gene expressions in the tissues of 3rd instar larvae with 0.91 amplicons efficiencies. Differences in the expression of olfactory proteins were determined using a one-sample t-test. All analyses were implemented in SPSS Statistics 18.0, and values are presented as means ± SE.
For orientation: Real-time PCR tracks product formation cycle by cycle.

Experiment [3] relates to E. signifer larvae. The following applies: cited from earlier work; for influence on the behaviour of E. signifier: ref [35],[36]; for attraction in behavior choice assays: ref [33],[34].
The mark [4] stands for this setting: competitive binding against 1-NPN, read-out: calculated Kd.
[5] abbreviates: 3rd instar larvae, 24 h exposure to volatile.
Where [6] appears, read: 5th instar larvae, 24 h exposure to volatile.

`Cc1cc(C)cc(C)c1` [1,3,5-trimethyl-benzen]: in experiment [1], the “binding affinities for EsigGOBP1 (in words)” value (“binding affinities” below) is on record as “low binding affinities” and the inhibitory constant (Ki) is 4600 nM. Also, the Kd in experiment [1] (setting [4]) is 4600 nM.

In the case of `c1ccc(Nc2cccc3ccccc23)cc1` [1-NPN, N-phenyl-1-naphthylamine, reference compound], the Kd in experiment [1] (binding curve and Scatchard plots, 1-NPN 2–24 μM, 2 μM EsigGOBP1, read-out: dissociation constant K1-NPN) was 3380 nM.

With `CC(C)(O)c1ccccc1` [2-Phenyl-2-propanol], in experiment [1], the “binding affinities” value is “low binding affinities”, the Ki was 2760 nM and the IC50 amounted to 22000 nM. Also, the Kd in experiment [1] (setting [4]) was 2770 nM.

In the case of `CC1=CCC2C(C1)C2(C)C` (centres unmarked) [3-carene], the “EsigGOBP1 expression vs control” value in experiment [2] (setting [5]) is listed as “downregulated; also recorded: extremely significantly lower”.

For `CCc1ccc(C(C)=O)cc1` [4-ethylacetophenone], in experiment [2] (setting [5]), the “EsigGOBP1 expression vs control” value was “downregulated; also recorded: extremely significantly lower”.

`CCc1ccccc1CC` [Benzene, 1,2-diethyl-]: the “influence on the behaviour of E. signifier” value in experiment [3] is reported as “no obvious influence”. In addition, in experiment [2] (5th instar larvae, 24 h exposure to volatile, 1,2-diethyl-), the “EsigGOBP1 expression vs control” value is listed as “upregulated”. Further, in experiment [1], the “binding affinities” value is on record as “high binding affinities”, the Ki was 792 nM and the IC50 amounted to 6300 nM. Also, in experiment [1] (setting [4]), the Kd is 790 nM.

`C=CC(=O)OCCCC` [Butyl acrylate]: in experiment [1], the “binding affinities” value is “high binding affinities”, the inhibitory constant (Ki) is 901 nM and the IC50 is 7180 nM. Also, the Kd in experiment [1] (setting [4]) was 900 nM.

In the case of `C=C1C2CCC(C2)C1(C)C` (centres unmarked) [Camphene], in experiment [1], the “binding affinities” value is recorded as “high binding affinities” and the IC50 was 7870 nM. Also, the Kd in experiment [1] (setting [4]) is 990 nM.

Turning to `C=C(C)[C@H]1CC=C(C)CC1` [D-limonene], in experiment [1], the “binding affinities” value is on record as “high binding affinities”, the Ki is 1430 nM and the IC50 worked out at 11400 nM. In addition, the Kd in experiment [1] (setting [4]) was 1430 nM.

As for `CC12CCC(CC1)C(C)(C)O2` [Eucalyptol], the “EsigGOBP1 expression vs control” value in experiment [2] (setting [5]) is listed as “downregulated; also recorded: significantly lower”. Besides, the “EsigGOBP1 expression vs control” value in experiment [2] (setting [6]) is recorded as “downregulated; also recorded: significantly lower”. Further, in experiment [1], the “binding affinities” value was “high binding affinities”, the Ki is 1270 nM and the IC50 is 10100 nM. Moreover, the Kd in experiment [1] (setting [4]) is 1270 nM.

Turning to `c1ccc2ccccc2c1` [Naphthalene], the “EsigGOBP1 expression vs control” value in experiment [2] (setting [5]) is reported as “upregulated”. Besides, in experiment [1], the “binding affinities” value was “low binding affinities”, the Ki is 2690 nM and the IC50 was 21500 nM. For the same compound, the Kd in experiment [1] (setting [4]) is 2690 nM.

Take `CC1=CC[C@H](C(C)C)C=C1` [alpha-Phellandrene]: the “influence on the behaviour of E. signifier” value in experiment [3] is on record as “no obvious influence”. Moreover, the “EsigGOBP1 expression vs control” value in experiment [2] (setting [5]) is “downregulated; also recorded: extremely significantly lower”. Further, in experiment [1], the “binding affinities” value is “high binding affinities”, the Ki is 889 nM and the IC50 came out at 7080 nM. The Kd in experiment [1] (setting [4]) is 890 nM.

For the compound `CC1=CCC2CC1C2(C)C` (stereo not drawn) [alpha-Pinene], in experiment [1], the “binding affinities” value is reported as “high binding affinities”, the Ki is 1240 nM and the IC50 was 9860 nM. Besides, the Kd in experiment [1] (setting [4]) is 1240 nM.

As for `CCc1ccccc1C` [benzene, 1-ethyl-2-methyl-], the “EsigGOBP1 expression vs control” value in experiment [2] (setting [6]) was “upregulated”.

For `Cc1ccccc1C(C)C` [o-cymene], in experiment [3] (3rd instar larvae), the “attraction in behavior choice assays” value was “significantly attracted”. Also, the “EsigGOBP1 expression vs control” value in experiment [2] (setting [5]) is on record as “downregulated; also recorded: extremely significantly lower”; in experiment [2] (setting [6]), “upregulated”.

For `C=C1CCC2CC1C2(C)C` (stereo not drawn) [β-Pinene], the “attraction in behavior choice assays” value in experiment [3] (5th instar larvae) is “significantly attracted”. Further, the “EsigGOBP1 expression vs control” value in experiment [2] (setting [6]) is listed as “downregulated”. Moreover, the “EsigGOBP1 expression vs control” value in experiment [2] (5th instar larvae, 24 h exposure to volatile, listed as β-pinene) is on record as “extremely significantly lower”. Moreover, in experiment [1], the “binding affinities” value is listed as “high binding affinities”, the Ki is 1320 nM and the IC50 came to 10500 nM. Moreover, the Kd in experiment [1] (setting [4]) is 1320 nM.
